Source: patent US6391907B1, “Indoline derivatives” (American Home Products Corporation, priority 1999, dated 2002)
Values joined by “and” are separate entries in the source; they are usually repeats but may differ in a detail not shown here. Equal entries are not always repeated.

Test system: rat uterine decidualization
Test: Rat decidualization assay
Type: in vivo
Conditions: @ 3 mg/kg; rat decidualization, antiprogestational mode
Procedure: 1. Rat Decidualization Assay
The animals are treated once daily for seven days.
Uteri are removed and trimmed of fat.
Decidual response: [(D-C)/C]×100%

In the case of `Cc1cc(C#N)sc1-c1ccc2c(c1)C1(CCCC1)C(=O)N2` [Example 73], the “Decid. IC50 mg/kg” value was 50% @ 3.

Same assay, conditions: @ 3 mg/kg; rat decidualization, antiprogestational mode; read-out: Decid. IC50 mg/kg

Point of comparison: `N#Cc1cccc(-c2ccc3c(c2)C2(CCCC2)C(=O)N3)c1` [Example 77, 5′-(3-Cyanophenyl)-spiro[cyclopentane-1,3′-[3H]indol]-2′(1′H)-one], inhibition in vivo at 3 mg/kg 60%. Against it:
- N#Cc1cc(F)cc(-c2ccc3c(c2)C2(CCCC2)C(=O)N3)c1 [Example 80, 5′-(3-Cyano-5-fluorophenyl)-spiro[cyclopentane-1,3′-[3H]indol]-2′(1′H)-one] — higher, 70%

Same assay, conditions: @ 10 mg/kg; rat decidualization, antiprogestational mode; read-out: Decid. IC50 mg/kg

`N#Cc1cccc(-c2ccc3c(c2)C2(CCCCC2)C(=O)N3)c1` [Example 47] showed an inhibition in vivo at 10 mg/kg of 50%.

Same assay, conditions: p.o.; half-maximal decrease in EC50 progesterone induced decidual response, rats

With `CC#C[C@]1(O)CC[C@H]2[C@@H]3CCC4=CC(=O)CCC4=C3[C@@H](c3ccc(N(C)C)cc3)C[C@@]21C` [RU486] the IC50 was 0.21 mg/kg and 0.14 mg/kg.

Same assay, conditions: s.c.; half-maximal increase in decidual response (uterine wet weight), ovariectomized rats; individual studies

In the case of `C#C[C@]1(O)CC[C@H]2[C@@H]3CCC4=CC(=O)CC[C@@H]4[C@H]3C(=C)C[C@@]21CC` [3-Ketodesogestrel], the EC50 was 0.10 mg/kg and 0.06 mg/kg and 0.11 mg/kg.
With `C#C[C@]1(O)CC[C@H]2[C@@H]3CCC4=CC(=O)CC[C@@H]4[C@H]3CC[C@@]21CC` [Levonorgestrel] the EC50 was 0.08 mg/kg and 0.12 mg/kg and 0.09 mg/kg (2×).

Test system: not given
Test: not given
Conditions: not given

Point of comparison: `O=C1Cc2cc(-c3cccc([N+](=O)[O-])c3)ccc2N1` [Example 1, 5-(3-Nitro-phenyl)-1,3-dihydro-indol-2-one], melting point 269 °C. Against it:
- N#Cc1cc(-c2ccc3c(c2)C2(CCCC2)C(=O)N3)ccc1F — lower, 264 to 266 °C
- CC1(C)C(=O)Nc2ccc(-c3cccc(Cl)c3)cc21 [Example 4, 5-(3-Chloro-phenyl)-3,3-dimethyl-1,3dihydro-indol-2-one] — lower, 188 to 189 °C
- CCC1C(=O)Nc2ccc(-c3cccc(Cl)c3)cc21 (stereo not drawn) [Example 6, 5-(3-Chloro-phenyl)-3-ethyl-1,3dihydro-indol-2-one] — lower, 118 to 120 °C
- CCC1(CC)C(=O)Nc2ccc(-c3cccc(Cl)c3)cc21 [Example 7, 5-(3-Chloro-phenyl)-3,3-diethyl-1,3-dihydro-indol-2-one] — lower, 195 to 197 °C
- O=C1Cc2cc(-c3cccc(Cl)c3)ccc2N1 [Example 10, 5-(3-Chloro-phenyl)-1,3-dihydro-indol-2-one] — lower, 169 to 171 °C
- O=C1Nc2ccc(-c3cccc(Cl)c3)cc2C12OCCO2 [Example 11, 5′-(3-Chlorophenyl)spiro[1,3-dioxolane-2,3′-[3H]indol]-2′(1′H)-one] — lower, 159 to 161 °C
- O=C1Nc2ccc(-c3cccc(Cl)c3)cc2C12OCCCO2 [Example 12, 5′-(3-Chlorophenyl)spiro[1,3-dioxane-2,3-[3H]indol]-2′(1′H)-one] — lower, 242 to 244 °C
- O=C1Nc2ccc(-c3cccc([N+](=O)[O-])c3)cc2C12CCCC2 [Example 13, 5′-(3-nitrophenyl)spiro[cyclopentane-1,3′-[3H]indol]2′(1′H)-one] — lower, 238 to 240 °C
- O=C1Nc2ccc(-c3ccc(F)c(Cl)c3)cc2C12CCCCC2 [Example 20, 5′-(3Chloro-4-fluorophenyl)spiro[cyclohexane-1,3′-[3H]indol]-2′(1′H)-one] — lower, 188 to 189 °C
- O=C1Nc2ccc(-c3cccc(F)c3)cc2C12CCCCC2 [Example 21, 5′-(3-Fluorophenyl)spiro[cyclohexane-1,3′-[3H]indol]-2′(1′H)-one] — lower, 171 to 172 °C
- O=C1Nc2ccc(-c3cc(F)cc(F)c3)cc2C12CCCCC2 [Example 22, 5′-(3,5-Difluorophenyl)spiro[cyclohexane1,3′-[3H]indol]-2′(1′H)-one] — lower, 180 to 183 °C
- O=C1Nc2ccc(-c3cc(F)cc(Cl)c3)cc2C12CCCCC2 [Example 27, 5′-(3-Chloro-5-fluorophenyl)spiro[cyclohexane-1,3′-[3H]indol]-2′(1′H)-one] — lower, 178 to 180 °C
- O=C1Nc2ccc(-c3cccc([N+](=O)[O-])c3)cc2C12CCCCC2 [Example 30, 5′-(3-Nitrophenyl)spiro[cyclohexane-1,3′-[3H]indol]-2′(1′H)-one] — lower, 196 to 198 °C
- N#Cc1csc(-c2ccc3c(c2)C2(CCCCC2)C(=O)N3)c1 [Example 38, 5-(1′,2′-Dihydro-2′-oxospiro[cyclohexane-1,3′-[3H]indol]-5′-yl)-thiophene-3-carbonitrile] — lower, 188 to 190 °C
- N#Cc1coc(-c2ccc3c(c2)C2(CCCCC2)C(=O)N3)c1 [Example 40, 5-(1′,2′-Dihydro-2′-oxospiro[cyclohexane-1,3′-[3H]indol]-5′-yl)-3-furancarbonitrile] — lower, 243 to 245 °C
- Cn1c(-c2ccc3c(c2)C2(CCCCC2)C(=O)N3)ccc1[N+](=O)[O-] [Example 45, 5′-(5-Nitro-1-methyl-pyrrol-2-yl)spiro[cyclohexane-1,3′-[3H]indol]-2′(1′H)-one] — lower, 210 °C
- O=C1Nc2ccc(-c3cccc4[nH]ccc34)cc2C12CCCCC2 [Example 46, 5′-(1H-Indol-4-yl)spiro[cyclohexane-1,3′-[3H]indol]-2′(1′H)-one] — lower, 211 to 213 °C
- N#Cc1cccc(-c2ccc3c(c2)C2(CCCCC2)C(=O)N3)c1 [Example 47] — lower, 190 to 191 °C
- N#Cc1cc(F)cc(-c2cc(Br)c3c(c2)C2(CCCCC2)C(=O)N3)c1 [Example 51, 3-(7′-Bromo-1′,2′-dihydro-2′-oxospiro[cyclohexane-1,3′-[3H]indol]-5′-yl)-5-fluoro-benzonitrile] — lower, 217 °C
- N#Cc1cc(F)cc(-c2cc([N+](=O)[O-])c3c(c2)C2(CCCCC2)C(=O)N3)c1 [Example 52, 3-(7′-Nitro-1′,2′-dihydro-2′-oxospiro[cyclohexane-1,3′-[3H]indol]-5′-yl)-5-fluoro-benzonitrile] — lower, 196 °C
- N#Cc1cc(F)cc(-c2cc(N)c3c(c2)C2(CCCCC2)C(=O)N3)c1 [Example 53, 3-(7′-Amino-1′,2′-dihydro-2′-oxospiro[cyclohexane-1,3′-[3H]indol]-5′-yl)-5-fluoro-benzonitrile] — lower, 241 to 243 °C
- Cc1c(-c2ccc3c(c2)C2(CCCCC2)C(=O)N3)sc2ccc(Cl)cc12 [Example 58, 5′-(5-Chloro-3-methylbenzo[b]thien-2-yl)spiro[cyclo-hexane-1,3′-[3H]indol]-2′(1′H)-one] — lower, 256 to 258 °C
- N#Cc1ccc(-c2ccc3c(c2)C2(CCCCC2)C(=O)N3)cc1F [Example 63, 5′-(4-Cyano-3-fluorophenyl)-spiro[cyclohexane-1,3′-[3H]indol]-2′(1′H)-one] — lower, 258 to 260 °C
- CC1(C)C(=O)Nc2ccc(-c3ccc(F)c(Cl)c3)cc21 [Example 66, 5-(3-Chloro-4-fluoro-phenyl)-3,3-dimethyl1,3-dihydro-indol-2-one] — lower, 206.5 to 207.8 °C
- CC1(C)C(=O)Nc2ccc(-c3cccc(C#N)c3)cc21 [Example 67, 3-(3,3-Dimethyl-2-oxo-2,3-dihydro-1H-indol-5-yl)-benzonitrile] — lower, 200.2 to 202 °C
- Cc1cc(C#N)sc1-c1ccc2c(c1)C(C)(C)C(=O)N2 [Example 69, 5(3,3-Dimethyl-2-oxo-2,3dihydro-1H-indol-5-yl)-4methyl thiophene-2-carbonitrile] — lower, 192.3 to 193 °C
- CC1(C)C(=O)Nc2ccc(-c3cc(F)cc(Cl)c3)cc21 [Example 70, 5-(3-Chloro-5-fluoro-phenyl)-3,3-dimethyl-1,3-dihydro-indol-2-one] — lower, 205.9 to 206.8 °C
- CC1(C)C(=O)Nc2ccc(-c3cc(F)cc([N+](=O)[O-])c3)cc21 [Example 71, 5-(3-Fluoro-5-nitro-phenyl)-3,3-dimethyl-1,3-dihydro-indol-2-one] — lower, 231.2 to 232.7 °C
- CC1(C)C(=O)Nc2ccc(-c3coc(C#N)c3)cc21 [Example 72, 4-(3,3-Dimethyl-2-oxo-2,3-dihydro-1H-indol-5-yl)-furan-2-carbonitrile] — lower, 199.6 to 201.4 °C
- O=C1Nc2ccc(-c3ccc(F)c(Cl)c3)cc2C12CCCC2 [Example 76, 5′-(3-Chloro-4fluorophenyl)-spiro[cyclopentane-1,3′-[3H]indol]-2′(1′H)-one] — lower, 202 to 204 °C
- N#Cc1cccc(-c2ccc3c(c2)C2(CCCC2)C(=O)N3)c1 [Example 77, 5′-(3-Cyanophenyl)-spiro[cyclopentane-1,3′-[3H]indol]-2′(1′H)-one] — lower, 217 to 219 °C
- CC1(C)C(=O)Nc2ccc(-c3ccc([N+](=O)[O-])s3)cc21 [Example 83, 3,3-Dimethyl-5-(5-nitro-thiophene-2-yl)-1,3-dihydro-indol-2-one] — lower, 223 to 225 °C
- CC(C)(C)OC(=O)n1cccc1-c1ccc2c(c1)C(C)(C)C(=O)N2 [Example 84, 2-(3,3-Dimethyl-2-oxo-2,3-dihydro-1H-indol-5yl)-pyrrole-1-carboxylic acid tert-butyl ester] — lower, 168.4 to 170.2 °C
- CC1(C)C(=O)Nc2ccc(-c3ccc(C#N)s3)cc21 [Example 86, 5-(3,3-Dimethyl-2-oxo-2,3-dihydro-1H-indol-5-yl)-thiophene2-carbonitrile] — lower, 255 to 256 °C
- CC1(C)C(=O)Nc2ccc(-c3cccc(C#N)c3F)cc21 [Example 87, 3(3,3-Dimethyl-2-oxo-2,3-dihydro-1H-indol-5-yl)-2-fluoro-benzonitrile] — higher, 270 to 272 °C

In the case of `CC#CC1(OC)C(=O)Nc2ccc(-c3cccc(Cl)c3)cc21` (stereo not drawn) [Example 9, 5-(3-Chloro-phenyl)-3-methoxy-3-prop-1-ynyl-1,3-dihydro-indol-2-one], the melting point was > 190 °C (dec.).
With `CC1(C)C(=O)Nc2ccc(C3([N+](=O)[O-])C=CC=N3)cc21` (stereo not drawn) [Example 85, 2-(3,3-Dimethyl-2-oxo-2,3-dihydro-1H-indol-5-yl)-2-nitro-pyrrole] the melting point was 293.9 to 294.2 °C (dec.).
